Values of other authors as cited in paper PMC10096175, “An In Vitro Antimicrobial, Anticancer and Antioxidant Activity of N–[(2–Arylmethylthio)phenylsulfonyl]cinnamamide Derivatives” (Molecules, 2023).
Values after ≈ are worked out from the molar mass of the structure shown.

Key:
[1] = test system: human breast cancer MCF-7 cells; design: method as in PMID 30389289; conditions: cited from earlier work
[2] = test system: mouse melanoma B16–F10 cell line; design: method as in PMID 21783370; conditions: cited from earlier work
[3] = test system: E. coli; design: method as in PMID 19231901; conditions: cited from earlier work
[4] = test system: quorum sensing system of C. violaceum; design: method as in doi:10.1016/j.ibiod.2018.06.003; conditions: at 1 mM; cited from earlier work
[5] = test system: S. aureus; design: method as in PMID 19231901; conditions: cited from earlier work

SMILES: O=C(/C=C/c1ccc2c(c1)OCO2)NS(=O)(=O)c1ccccc1 [(E)–3–(benzo[d][1,3]dioxol–5–yl)–N–(phenylsulfonyl)acrylamide]
- IC50 [1]: 0.17 µg/mL (≈ 0.513 µM)

SMILES: O=C(/C=C/c1ccc(Br)cc1)NS(=O)(=O)c1ccc(F)cc1 [(E)–3–(4–bromophenyl)–N–(4–fluorophenylsulfonyl)acrylamide]
- IC50 [2]: 1.2 µg/mL (≈ 3.12 µM)

SMILES: COC(=O)/C=C/c1ccccc1 [methyl trans-cinnamate]
- Concentration that completely inhibited growth [3]: 6.2 mM
- Quorum sensing inhibition [4]: completely inhibit
- Concentration that completely inhibited growth [5]: 3.1 mM

SMILES: O=C(/C=C/c1ccc(F)cc1)NS(=O)(=O)c1ccc(F)cc1 [(E)–3–(4–fluorophenyl)–N–(4-fluorophenylsulfonyl)acrylamide]
- IC50 [2]: 0.8 µg/mL (≈ 2.47 µM)
